Reference: patent EP4745135A1 (Gluetacs Therapeutics (Shanghai) Co., Ltd., priority 2023, dated 2025)

Experiments:
[1] = biological target: T1, CK1α (Homo sapiens, UniProt P48729+Q96SW2); assay: Western blot, degradation of substrate protein in hPBMCs; assay type: cell-based; conditions: Western blot, 24 hours of compound treatment, compounds tested at 50 nM and 500 nM (concentration for the table not stated)
T1 construct: effects of the compounds of the present disclosure on the expression of target proteins in cells; endogenous in cells; host or cells: human PBMCs (Milecell Biotechnologies)
Procedure: (§1) Conventional Western blot assay was performed to evaluate the effects of the compounds of the present disclosure on the expression of target proteins in cells. • (1) Cell Seeding and Protein Harvesting: Human peripheral blood mononuclear cells (hPBMCs) at a density of 1×10^6 cells/mL were thawed according to the PBMC Recovery Protocol (Milecell Biotechnologies Inc, Shanghai). […] After 24 hours of compounds treatment, cells were harvested and lysed in RIPA protein lysate containing protease inhibitors on ice for 30 min, followed by centrifugation. The supernatant was aspirated as the extracted total cell protein. The protein concentration of the supernatant was determined using the conventional BCA (Bicinchoninic Acid) assay. • (2) To the collected supernatant, 5X SDS sample loading buffer was added, followed by denaturation at 95°C for 5 minutes. The denatured samples were then separated by SDS-PAGE electrophoresis on a polyacrylamide gel, transferred onto a nitrocellulose membrane (0.45 µm NC membrane), blocked with blocking buffer at room temperature for 1 hour, and subjected to antibody incubation and development procedures according to the antibody manufacturer's instructions (Cell Signaling Technology Company).
(§2) Half-Maximal Degradation Concentration value (the drug concentration required for degrading proteins by 50%, abbreviated as DC50) reads method: comparing the grayscale values of Western blot bands from drug-treated samples with those from blank DMSO-treated controls, and identifying the drug concentration range at which the grayscale value is half that of the DMSO-treated control bands.
(§3) DC50 values can be calculated using ImageJ software to measure grayscale values of Western blot bands from drug-treated samples. The concentration-response curve is fitted to estimate the drug concentration corresponding to half the grayscale value.
(§4) Target protein remaining (%) refers to the percentage of target protein remaining in cells after treatment with protein degrader compounds.
(§5) Calculation method for target protein remaining (%): Use ImageJ software to measure grayscale values of Western blot bands from drug (protein degrader)-treated samples. The grayscale value of drug-treated bands is divided by that of internal control protein bands, and the resulting quotient is normalized to obtain the relative percentage of remaining target protein after protein degrader treatment.
(§6) Target protein degradation rate (%) = 1−target protein remaining (%). [formula]

[2] = biological target: T2, IKZF1 (Homo sapiens, UniProt Q13422+Q96SW2); assay: as above; assay type: cell-based; conditions: Western blot, 24 hours of compound treatment, compounds tested at 50 nM and 500 nM (concentration for the table not stated)
T2 construct: effects of the compounds of the present disclosure on the expression of target proteins in cells; endogenous in cells; host or cells: human PBMCs (Milecell Biotechnologies)
Procedure: as §1, §2, §3, §4, §5, §6

[3] = biological target: T3, IKZF2 (Homo sapiens, UniProt Q96SW2+Q9UKS7); assay: as above; assay type: cell-based; conditions: Western blot, 24 hours of compound treatment, compounds tested at 50 nM and 500 nM (concentration for the table not stated)
T3 construct: effects of the compounds of the present disclosure on the expression of target proteins in cells; endogenous in cells; host or cells: human PBMCs (Milecell Biotechnologies)
Procedure: as §1, §2, §3, §4, §5, §6

[4] = biological target: T4, IKZF3 (Homo sapiens, UniProt Q96SW2+Q9UKT9); assay: as above; assay type: cell-based; conditions: Western blot, 24 hours of compound treatment, compounds tested at 50 nM and 500 nM (concentration for the table not stated)
T4 construct: effects of the compounds of the present disclosure on the expression of target proteins in cells; endogenous in cells; host or cells: human PBMCs (Milecell Biotechnologies)
Procedure: as §1, §2, §3, §4, §5, §6

[5] = biological target: T5, WEE1 (Homo sapiens, UniProt P30291+Q96SW2); assay: as above; assay type: cell-based; conditions: Western blot, 24 hours of compound treatment, compounds tested at 50 nM and 500 nM (concentration for the table not stated)
T5 construct: effects of the compounds of the present disclosure on the expression of target proteins in cells; endogenous in cells; host or cells: human PBMCs (Milecell Biotechnologies)
Procedure: as §1, §2, §3, §4, §5, §6

[6] = system: GSPT1; assay: as above; assay type: cell-based, Human; conditions: Western blot, 24 hours of compound treatment, compounds tested at 50 nM and 500 nM (concentration for the table not stated)
Procedure: as §1, §2, §3, §4, §5, §6

[7] = biological target: T6, human Cereblon WT GST-tagged protein (Homo sapiens, UniProt Q96SW2); assay: CRBN-binding affinity, HTRF (CEREBLON BINDING kit); conditions: for inhibition at 0.5 µM: read-out: Inhibition Rate at 0.5 µM (%); for inhibition at 2 µM: read-out: Inhibition Rate at 2 µM (%)
T6 construct: purchased CISBIO 64BDCRBNPEH
Procedure: The CEREBLON BINDING kits (specification: 10,000 tests; product number: Catalog # 64BDCRBNPEH; CISBIO company) was used to determine the CRBN binding ability of the compounds to be tested through a HTRF method (homogeneous time-resolved fluorescence). The specific methods are as follows: • 1. […] Specifically, diluent #9 (1X) solution was used as the diluent, and multiple concentration gradients were set. […] Then, 2.5 µL of human Cereblon WT GST-tagged protein solution was added to each well. Finally, 5 µL of the thoroughly mixed Thalidomide-Re reagent and GST Eu antibody working solution were added to each of the aforementioned wells. […] The blank control wells were sequentially added with 2.5 µL of diluent #9 (1X) solution, 2.5 µL of PROTAC binding buffer, and 5 µL of thoroughly mixed Thalidomide-Re reagent and GST Eu antibody working solution. • 4.

T6 sequence (Q96SW2 whole entry): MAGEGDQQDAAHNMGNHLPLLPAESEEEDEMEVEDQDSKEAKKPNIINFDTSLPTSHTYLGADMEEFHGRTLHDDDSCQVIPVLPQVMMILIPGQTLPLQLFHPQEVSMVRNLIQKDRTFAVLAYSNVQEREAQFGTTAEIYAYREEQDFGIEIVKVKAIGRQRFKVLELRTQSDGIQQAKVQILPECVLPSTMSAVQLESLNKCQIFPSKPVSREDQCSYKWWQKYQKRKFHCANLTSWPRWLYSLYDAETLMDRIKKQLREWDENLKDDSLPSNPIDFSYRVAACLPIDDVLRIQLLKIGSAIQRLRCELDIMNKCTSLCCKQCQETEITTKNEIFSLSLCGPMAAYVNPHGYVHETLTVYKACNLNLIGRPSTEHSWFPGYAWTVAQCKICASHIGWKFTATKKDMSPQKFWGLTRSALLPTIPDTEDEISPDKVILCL
T3 sequence (Q9UKS7 whole entry): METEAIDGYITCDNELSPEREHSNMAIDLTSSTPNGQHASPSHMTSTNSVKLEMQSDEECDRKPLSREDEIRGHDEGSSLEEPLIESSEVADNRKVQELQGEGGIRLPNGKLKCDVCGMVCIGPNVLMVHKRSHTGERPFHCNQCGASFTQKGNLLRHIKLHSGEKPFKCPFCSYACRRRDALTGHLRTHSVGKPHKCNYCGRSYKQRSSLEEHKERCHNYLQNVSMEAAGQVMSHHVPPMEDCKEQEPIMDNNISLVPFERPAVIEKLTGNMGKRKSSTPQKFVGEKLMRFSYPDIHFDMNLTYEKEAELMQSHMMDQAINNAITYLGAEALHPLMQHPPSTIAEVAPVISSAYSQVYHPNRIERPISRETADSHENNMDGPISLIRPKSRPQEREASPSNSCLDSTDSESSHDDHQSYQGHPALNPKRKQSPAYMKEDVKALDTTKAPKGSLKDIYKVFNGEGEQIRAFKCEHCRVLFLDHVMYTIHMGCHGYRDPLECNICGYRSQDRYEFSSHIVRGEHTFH
T3 sequence (Q96SW2 whole entry): as the sequence (Q96SW2 whole entry) above
T3 sequence (Q16531 whole entry partner): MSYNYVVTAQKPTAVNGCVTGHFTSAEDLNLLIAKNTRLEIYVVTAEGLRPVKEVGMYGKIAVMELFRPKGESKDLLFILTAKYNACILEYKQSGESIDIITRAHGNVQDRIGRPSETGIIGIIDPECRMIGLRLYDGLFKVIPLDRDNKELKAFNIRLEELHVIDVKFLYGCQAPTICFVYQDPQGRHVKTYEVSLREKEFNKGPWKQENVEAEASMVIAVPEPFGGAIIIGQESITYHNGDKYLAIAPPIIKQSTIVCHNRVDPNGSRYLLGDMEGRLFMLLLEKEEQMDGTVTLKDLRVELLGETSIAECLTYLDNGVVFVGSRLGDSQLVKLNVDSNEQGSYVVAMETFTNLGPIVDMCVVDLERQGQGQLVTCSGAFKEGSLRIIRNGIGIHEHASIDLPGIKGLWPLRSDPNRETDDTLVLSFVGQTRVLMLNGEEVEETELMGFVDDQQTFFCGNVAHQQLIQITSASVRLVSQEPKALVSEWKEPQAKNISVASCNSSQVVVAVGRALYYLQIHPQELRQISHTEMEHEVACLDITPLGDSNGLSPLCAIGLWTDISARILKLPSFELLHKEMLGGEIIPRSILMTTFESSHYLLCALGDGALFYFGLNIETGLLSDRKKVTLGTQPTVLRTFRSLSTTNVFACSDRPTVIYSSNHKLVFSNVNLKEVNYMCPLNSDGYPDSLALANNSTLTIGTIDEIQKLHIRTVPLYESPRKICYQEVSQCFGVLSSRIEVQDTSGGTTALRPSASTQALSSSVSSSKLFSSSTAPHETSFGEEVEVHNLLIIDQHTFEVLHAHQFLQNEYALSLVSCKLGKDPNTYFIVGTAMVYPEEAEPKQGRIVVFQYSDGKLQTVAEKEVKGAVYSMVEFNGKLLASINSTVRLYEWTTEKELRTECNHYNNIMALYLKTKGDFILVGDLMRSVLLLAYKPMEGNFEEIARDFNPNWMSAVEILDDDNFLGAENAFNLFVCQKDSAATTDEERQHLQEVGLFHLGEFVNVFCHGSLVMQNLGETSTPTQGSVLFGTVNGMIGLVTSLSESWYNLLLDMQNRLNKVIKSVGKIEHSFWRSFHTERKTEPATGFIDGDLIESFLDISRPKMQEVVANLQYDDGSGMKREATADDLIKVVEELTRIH
T2 sequence (Q13422 whole entry): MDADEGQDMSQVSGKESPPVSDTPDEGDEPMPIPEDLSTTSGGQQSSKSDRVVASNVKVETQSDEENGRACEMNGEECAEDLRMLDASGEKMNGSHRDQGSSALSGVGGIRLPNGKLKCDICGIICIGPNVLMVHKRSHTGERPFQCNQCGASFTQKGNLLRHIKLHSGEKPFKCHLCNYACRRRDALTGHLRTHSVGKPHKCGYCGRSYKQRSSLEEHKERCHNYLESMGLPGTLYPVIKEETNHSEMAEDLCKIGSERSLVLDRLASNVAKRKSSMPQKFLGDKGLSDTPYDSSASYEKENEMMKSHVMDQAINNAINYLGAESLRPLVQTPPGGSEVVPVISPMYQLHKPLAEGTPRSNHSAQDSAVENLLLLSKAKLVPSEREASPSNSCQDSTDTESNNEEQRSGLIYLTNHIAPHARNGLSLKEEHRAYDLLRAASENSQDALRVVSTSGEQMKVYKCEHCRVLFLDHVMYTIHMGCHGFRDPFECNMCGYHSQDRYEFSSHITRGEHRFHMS
T2 sequence (Q96SW2 whole entry): as the sequence (Q96SW2 whole entry) above
T2 sequence (Q16531 whole entry partner): as the sequence (Q16531 whole entry partner) above
T1 sequence (P48729 whole entry): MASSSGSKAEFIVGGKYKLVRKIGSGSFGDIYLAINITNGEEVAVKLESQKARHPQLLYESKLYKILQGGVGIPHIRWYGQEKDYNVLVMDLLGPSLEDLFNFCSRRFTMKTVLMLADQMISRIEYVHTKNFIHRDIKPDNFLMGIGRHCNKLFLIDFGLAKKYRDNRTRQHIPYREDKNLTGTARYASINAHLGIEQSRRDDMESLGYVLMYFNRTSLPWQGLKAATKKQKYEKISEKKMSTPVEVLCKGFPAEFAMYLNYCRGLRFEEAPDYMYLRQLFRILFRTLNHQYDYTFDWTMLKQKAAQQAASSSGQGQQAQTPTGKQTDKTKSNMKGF
T1 sequence (Q96SW2 whole entry): as the sequence (Q96SW2 whole entry) above
T1 sequence (Q16531 whole entry partner): as the sequence (Q16531 whole entry partner) above
T4 sequence (Q9UKT9 whole entry): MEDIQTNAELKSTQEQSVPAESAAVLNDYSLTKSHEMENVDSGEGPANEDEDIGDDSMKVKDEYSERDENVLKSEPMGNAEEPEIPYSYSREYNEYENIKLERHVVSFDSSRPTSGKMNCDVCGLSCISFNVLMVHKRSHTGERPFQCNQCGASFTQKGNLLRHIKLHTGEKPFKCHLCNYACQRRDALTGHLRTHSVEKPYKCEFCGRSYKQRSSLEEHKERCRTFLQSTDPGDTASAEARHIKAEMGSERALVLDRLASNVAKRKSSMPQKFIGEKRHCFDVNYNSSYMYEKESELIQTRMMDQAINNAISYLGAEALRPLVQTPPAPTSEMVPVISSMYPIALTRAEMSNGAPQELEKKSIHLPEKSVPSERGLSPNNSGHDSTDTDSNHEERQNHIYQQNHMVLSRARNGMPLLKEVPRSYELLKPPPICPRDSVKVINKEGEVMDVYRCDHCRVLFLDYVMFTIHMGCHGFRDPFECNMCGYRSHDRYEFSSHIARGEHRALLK
T4 sequence (Q96SW2 whole entry): as the sequence (Q96SW2 whole entry) above
T4 sequence (Q16531 whole entry partner): as the sequence (Q16531 whole entry partner) above
T5 sequence (P30291 whole entry): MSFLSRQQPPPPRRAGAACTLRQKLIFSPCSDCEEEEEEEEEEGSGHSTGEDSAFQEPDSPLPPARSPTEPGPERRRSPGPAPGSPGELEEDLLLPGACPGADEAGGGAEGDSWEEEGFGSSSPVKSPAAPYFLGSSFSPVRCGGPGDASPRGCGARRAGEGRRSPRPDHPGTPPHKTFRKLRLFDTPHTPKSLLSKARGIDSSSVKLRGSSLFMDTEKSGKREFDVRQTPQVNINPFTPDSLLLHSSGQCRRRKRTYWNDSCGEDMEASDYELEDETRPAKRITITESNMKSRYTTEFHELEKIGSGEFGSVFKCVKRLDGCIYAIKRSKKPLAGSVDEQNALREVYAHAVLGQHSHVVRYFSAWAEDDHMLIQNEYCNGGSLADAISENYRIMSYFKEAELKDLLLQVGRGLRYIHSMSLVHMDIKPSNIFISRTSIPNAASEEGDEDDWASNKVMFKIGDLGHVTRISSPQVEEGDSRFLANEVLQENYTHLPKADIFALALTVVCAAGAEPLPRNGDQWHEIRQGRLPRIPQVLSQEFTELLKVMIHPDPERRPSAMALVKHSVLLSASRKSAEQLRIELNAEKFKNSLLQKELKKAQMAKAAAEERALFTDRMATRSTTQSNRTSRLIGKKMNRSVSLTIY
T5 sequence (Q96SW2 whole entry): as the sequence (Q96SW2 whole entry) above
T5 sequence (Q16531 whole entry partner): as the sequence (Q16531 whole entry partner) above

O=C1CCC(N2Cc3c(CN4CCN(c5cccc(Cl)c5Cl)CC4)cccc3C2=S)C(=O)N1 (centres unmarked) [GT-08258, 3-(4-((4-(2,3-dichlorophenyl)piperazin-1-yl)methyl)-1-thioxoisoindolin-2-yl)piperidine-2,6-dione]
CK1α substrate protein remaining % [1]: B (80%< substrate protein remaining %≤ 100%)
IKZF 1 substrate protein remaining % [2]: B (80%< substrate protein remaining %≤ 100%)
IKZF2 substrate protein remaining % [3]: B (80%< substrate protein remaining %≤ 100%)
IKZF3 substrate protein remaining % [4]: B (80%< substrate protein remaining %≤ 100%)
Wee1 substrate protein remaining % [5]: A (0% ≤ substrate protein remaining % ≤ 80%)
GSPT1 substrate protein remaining % [6]: A (0% ≤ substrate protein remaining % ≤ 80%)

O=C1CCC(N2Cc3c(CN4CCN(c5ccccc5Br)CC4)cccc3C2=S)C(=O)N1 (centres unmarked) [GT-08267, 3-(4-((4-(2-bromophenyl)piperazin-1-yl)methyl)-1-thioxoisoindolin-2-yl)piperidine-2,6-dione]
CK1α substrate protein remaining % [1]: B (80%< substrate protein remaining %≤ 100%)
IKZF 1 substrate protein remaining % [2]: B (80%< substrate protein remaining %≤ 100%)
IKZF2 substrate protein remaining % [3]: B (80%< substrate protein remaining %≤ 100%)
IKZF3 substrate protein remaining % [4]: B (80%< substrate protein remaining %≤ 100%)
Wee1 substrate protein remaining % [5]: A (0% ≤ substrate protein remaining % ≤ 80%)
GSPT1 substrate protein remaining % [6]: A (0% ≤ substrate protein remaining % ≤ 80%)

O=C1CCC(N2Cc3cc(CN4CC(c5ccnc6cc(F)ccc56)C4)ccc3C2=S)C(=O)N1 (centres unmarked) [GT-09279, 3-(5-((3-(7-fluoroquinolin-4-yl)azetidin-1-yl)methyl)-1-thioxoisoindolin-2-yl)piperidine-2,6-dione]
inhibition at 0.5 µM [7]: 60 to 80%
inhibition at 2 µM [7]: 80 to 100%

O=C1CCC(N2Cc3cc(CN4CCN(c5ncnc6sccc56)CC4)ccc3C2=S)C(=O)N1 (centres unmarked) [GT-09280, 3-(5-((4-(thieno[2,3-d]pyrimidin-4-yl)piperazin-1-yl)methyl)-1-thioxoisoindolin-2-yl)piperidine-2,6-dione]
inhibition at 0.5 µM [7]: 80 to 100%
inhibition at 2 µM [7]: 80 to 100%

Cc1cc2c(N3CCN(Cc4ccc5c(c4)CN(C4CCC(=O)NC4=O)C5=S)CC3)ncnc2s1 (centres unmarked) [GT-09282, 3-(5-((4-(6-methylthieno[2,3-d]pyrimidin-4-yl)piperazin-1-yl)methyl)-1-thioxoisoindolin-2-yl)piperidine-2,6-dione]
inhibition at 0.5 µM [7]: 60 to 80%
inhibition at 2 µM [7]: 80 to 100%

CC(C)c1cc2c(N3CCN(Cc4ccc5c(c4)CN(C4CCC(=O)NC4=O)C5=S)CC3)ncnc2s1 (centres unmarked) [GT-09284, 3-(5-((4-(6-isopropylthieno[2,3-d]pyrimidin-4-yl)piperazin-1-yl)methyl)-1-thioxoisoindolin-2-yl)piperidine-2,6-dione]
inhibition at 0.5 µM [7]: 40 to 53%
inhibition at 2 µM [7]: 80 to 100%

Cc1sc2ncnc(N3CCN(Cc4ccc5c(c4)CN(C4CCC(=O)NC4=O)C5=S)CC3)c2c1C (centres unmarked) [GT-09285, 3-(5-((4-(5,6-dimethylthieno[2,3-d]pyrimidin-4-yl)piperazin-1-yl)methyl)-1-thioxoisoindolin-2-yl)piperidine-2,6-dione]
inhibition at 0.5 µM [7]: 80 to 100%
inhibition at 2 µM [7]: 80 to 100%

Cc1sc2ncnc(N3CCCN(Cc4ccc5c(c4)CN(C4CCC(=O)NC4=O)C5=S)CC3)c2c1C (centres unmarked) [GT-09287, 3-(5-((4-(5,6-dimethylthieno[2,3-d]pyrimidin-4-yl)-1,4-diazepan-1-yl)methyl)-1-thioxoisoindolin-2-yl)piperidine-2,6-dione]
inhibition at 0.5 µM [7]: 80 to 100%
inhibition at 2 µM [7]: 80 to 100%

O=C1CCC(N2Cc3cc(CN4CCN(c5ncnc6sc(Br)cc56)CC4)ccc3C2=S)C(=O)N1 (centres unmarked) [GT-09295, 3-(5-((4-(6-bromothieno[2,3-d]pyrimidin-4-yl)piperazin-1-yl)methyl)-1-thioxoisoindolin-2-yl)piperidine-2,6-dione]
inhibition at 0.5 µM [7]: 80 to 100%
inhibition at 2 µM [7]: 80 to 100%

O=C1CCC(N2Cc3cc(CN4CCN(c5ncnc6scc(-c7ccccc7)c56)CC4)ccc3C2=S)C(=O)N1 (centres unmarked) [GT-09297, 3-(5-((4-(5-phenylthieno[2,3-d]pyrimidin-4-yl)piperazin-1-yl)methyl)-1-thioxoisoindolin-2-yl)piperidine-2,6-dione]
inhibition at 0.5 µM [7]: 60 to 80%
inhibition at 2 µM [7]: 80 to 100%

O=C1CCC(N2Cc3cc(CN4CCN(c5ncc6ccsc6n5)CC4)ccc3C2=S)C(=O)N1 (centres unmarked) [GT-09303, 3-(5-((4-(thieno[2,3-d]pyrimidin-2-yl)piperazin-1-yl)methyl)-1-thioxoisoindolin-2-yl)piperidine-2,6-dione]
inhibition at 0.5 µM [7]: 60 to 80%
inhibition at 2 µM [7]: 80 to 100%

O=C1CCC(N2Cc3cc(CN4CCC(c5ncnc6sccc56)CC4)ccc3C2=S)C(=O)N1 (centres unmarked) [GT-09304, 3-(5-((4-(thieno[2,3-d]pyrimidin-4-yl)piperidin-1-yl)methyl)-1-thioxoisoindolin-2-yl)piperidine-2,6-dione]
inhibition at 0.5 µM [7]: 60 to 80%
inhibition at 2 µM [7]: 80 to 100%

Cc1cc2c(C3CCN(Cc4ccc5c(c4)CN(C4CCC(=O)NC4=O)C5=S)CC3)ncnc2s1 (centres unmarked) [GT-09305, 3-(5-((4-(6-methylthieno[2,3-d]pyrimidin-4-yl)piperidin-1-yl)methyl)-1-thioxoisoindolin-2-yl)piperidine-2,6-dione]
inhibition at 0.5 µM [7]: 60 to 80%
inhibition at 2 µM [7]: 80 to 100%

O=C1CCC(N2Cc3cc(CN4CCC(c5ncnc6sc(-c7ccccc7)cc56)CC4)ccc3C2=S)C(=O)N1 (centres unmarked) [GT-09306, 3-(5-((4-(6-phenylthieno[2,3-d]pyrimidin-4-yl)piperidin-1-yl)methyl)-1-thioxoisoindolin-2-yl)piperidine-2,6-dione]
inhibition at 0.5 µM [7]: 40 to 53%
inhibition at 2 µM [7]: 80 to 100%

Cc1nc(C2CCN(Cc3ccc4c(c3)CN(C3CCC(=O)NC3=O)C4=S)CC2)c2c(-c3ccccc3)csc2n1 (centres unmarked) [GT-09308]
inhibition at 0.5 µM [7]: 40 to 53%
inhibition at 2 µM [7]: 80 to 100%

Cc1nc(C2=CCN(Cc3ccc4c(c3)CN(C3CCC(=O)NC3=O)C4=S)CC2)c2c3c(sc2n1)CCCC3 (centres unmarked) [GT-09323, 3-(5-((4-(2-methyl-5,6,7,8-tetrahydrobenzo[4,5]thieno[2,3-d]pyrimidin-4-yl)-3,6-dihydropyridin-1(2H)-yl)methyl)-1-thioxoisoindolin-2-yl)piperidine-2,6-dione]
inhibition at 0.5 µM [7]: 40 to 53%
inhibition at 2 µM [7]: 80 to 100%

O=C1CCC(N2Cc3cc(CN4CCN(c5nc6c(c(N7CCOCC7)n5)SCC6)CC4)ccc3C2=S)C(=O)N1 (centres unmarked) [GT-09330, 3-(5-((4-(4-morpholino-6,7-dihydrothieno[3,2-d]pyrimidin-2-yl)piperazin-1-yl)methyl)-1-thioxoisoindolin-2-yl)piperidine-2,6-dione]
inhibition at 0.5 µM [7]: 60 to 80%
inhibition at 2 µM [7]: 80 to 100%

O=C1CCC(N2Cc3cc(CN4CCN(c5ccnc(Cl)c5Cl)CC4)ccc3C2=S)C(=O)N1 (centres unmarked) [GT-09354, 3-(5-((4-(2,3-dichloropyridin-4-yl)piperazin-1-yl)methyl)-1-thioxoisoindolin-2-yl)piperidine-2,6-dione]
inhibition at 0.5 µM [7]: 60 to 80%
inhibition at 2 µM [7]: 80 to 100%
